Experimental data published in ChEMBL document CHEMBL3108684, “Discovery and development of potent and selective inhibitors of histone methyltransferase g9a” (ACS Med Chem Lett, 2014).
Calls of active or inactive are those of the source. No cut-off for these calls is given here.

Tests used:
PC-3 [1] = assay: Effect on total H3K36Me2 protein level in human PC3 cells at 0.01 to 10 uM after 72 hrs by Western blotting analysis; type: functional, cell-based
PC-3 [2] = assay: Effect on total H3K27Me3 protein level in human PC3 cells at 0.01 to 10 uM after 72 hrs by Western blotting analysis; type: functional, cell-based
PC-3 [3] = assay: Effect on total histone 3 protein level in human PC3 cells at 0.01 to 10 uM after 72 hrs by Western blotting analysis; type: functional, cell-based
[4] = target: Histone-lysine N-methyltransferase EHMT1 (Homo sapiens, UniProt Q9H9B1); assay: Inhibition of GLP (unknown origin)-mediated incorporation of methyl group from [3H]-SAM into peptide substrate by scintillation proximity assay
[5] = target: Histone-lysine N-methyltransferase NSD2 (Homo sapiens) (UniProt O96028); assay: Inhibition of WHSC1 (unknown origin)-mediated incorporation of methyl group from [3H]-SAM into peptide substrate up to 50 uM after 1 hr by scintillation proximity assay
[6] = target: Histone-lysine N-methyltransferase NSD3 (Homo sapiens) (UniProt Q9BZ95); assay: Inhibition of WHSC1L (unknown origin)-mediated incorporation of methyl group from [3H]-SAM into peptide substrate up to 50 uM after 1 hr by scintillation proximity assay
[7] = target: Histone-lysine N-methyltransferase, H3 lysine-79 specific (Homo sapiens) (UniProt Q8TEK3); assay: Inhibition of DOT1L (unknown origin)-mediated incorporation of methyl group from [3H]-SAM into peptide substrate up to 50 uM after 1 hr by scintillation proximity assay
[8] = target: Histone-lysine N-methyltransferase SETD2 (Homo sapiens) (UniProt Q9BYW2); assay: Inhibition of SETD2 (unknown origin)-mediated incorporation of methyl group from [3H]-SAM into peptide substrate up to 50 uM by scintillation proximity assay
[9] = target: N-lysine methyltransferase SMYD2 (Homo sapiens) (UniProt Q9NRG4); assay: Inhibition of SMYD2 (unknown origin)-mediated incorporation of methyl group from [3H]-SAM into peptide substrate up to 50 uM by scintillation proximity assay
[10] = target: Histone-lysine N-methyltransferase KMT5C (Homo sapiens) (UniProt Q86Y97); assay: Inhibition of SUV420H2 (unknown origin)-mediated incorporation of methyl group from [3H]-SAM into peptide substrate up to 50 uM by scintillation proximity assay
[11] = target: Histone-lysine N-methyltransferase KMT5B (Homo sapiens) (UniProt Q4FZB7); assay: Inhibition of SUV420H1 (unknown origin)-mediated incorporation of methyl group from [3H]-SAM into peptide substrate up to 50 uM by scintillation proximity assay
[12] = target: DNA (cytosine-5)-methyltransferase 1 (Homo sapiens) (UniProt P26358); assay: Inhibition of DNMT1 (unknown origin)-mediated incorporation of methyl group from [3H]-SAM into dsDNA substrate up to 50 uM by scintillation proximity assay
[13] = target: Histone-lysine N-methyltransferase SMYD3 (Homo sapiens) (UniProt Q9H7B4); assay: Inhibition of SMYD3 (unknown origin)-mediated incorporation of methyl group from [3H]-SAM into peptide substrate up to 50 uM by scintillation proximity assay
[14] = target: EZH2/SUZ12/EED complex (Homo sapiens) (UniProt Q15910+O75530+Q15022); assay: Inhibition of EZH2/SUZ12/EED complex (unknown origin)-mediated incorporation of methyl group from [3H]-SAM into peptide substrate up to 50 uM by scintillation proximity assay; type: protein-complex assay
Chain of EZH2/SUZ12/EED complex (Homo sapiens) (O75530 2-441 partner limits assumed): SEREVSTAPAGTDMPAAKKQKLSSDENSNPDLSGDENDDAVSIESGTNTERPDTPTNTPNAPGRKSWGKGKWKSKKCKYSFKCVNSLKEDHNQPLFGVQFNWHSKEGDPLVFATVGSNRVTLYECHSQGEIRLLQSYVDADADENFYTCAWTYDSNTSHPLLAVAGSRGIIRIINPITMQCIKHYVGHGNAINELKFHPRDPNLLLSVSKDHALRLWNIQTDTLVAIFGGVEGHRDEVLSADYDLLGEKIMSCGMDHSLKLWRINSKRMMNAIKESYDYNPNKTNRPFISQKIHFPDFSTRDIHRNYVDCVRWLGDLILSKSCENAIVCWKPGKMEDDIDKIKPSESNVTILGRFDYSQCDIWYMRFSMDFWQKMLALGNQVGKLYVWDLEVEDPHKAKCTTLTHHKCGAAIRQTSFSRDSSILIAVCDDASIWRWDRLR
Chain of EZH2/SUZ12/EED complex (Homo sapiens) (Q15022 whole entry partner): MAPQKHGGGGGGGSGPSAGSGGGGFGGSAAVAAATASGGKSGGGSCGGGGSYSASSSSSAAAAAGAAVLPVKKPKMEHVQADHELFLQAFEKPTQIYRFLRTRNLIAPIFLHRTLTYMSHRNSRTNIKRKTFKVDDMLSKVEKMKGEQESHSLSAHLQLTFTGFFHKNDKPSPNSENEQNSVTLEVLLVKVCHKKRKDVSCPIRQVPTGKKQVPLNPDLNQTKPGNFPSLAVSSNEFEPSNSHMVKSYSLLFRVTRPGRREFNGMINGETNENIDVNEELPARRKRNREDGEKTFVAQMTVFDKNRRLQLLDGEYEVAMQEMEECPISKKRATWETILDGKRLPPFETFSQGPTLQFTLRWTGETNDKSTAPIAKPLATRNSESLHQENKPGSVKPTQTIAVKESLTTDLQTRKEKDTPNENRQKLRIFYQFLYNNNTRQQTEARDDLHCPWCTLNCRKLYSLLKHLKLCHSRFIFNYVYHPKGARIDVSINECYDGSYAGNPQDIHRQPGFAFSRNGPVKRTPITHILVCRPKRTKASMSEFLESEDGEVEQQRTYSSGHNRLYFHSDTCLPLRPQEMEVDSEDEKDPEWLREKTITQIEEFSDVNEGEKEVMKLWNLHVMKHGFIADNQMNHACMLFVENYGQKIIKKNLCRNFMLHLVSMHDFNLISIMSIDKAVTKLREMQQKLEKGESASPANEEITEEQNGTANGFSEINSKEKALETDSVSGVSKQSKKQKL
Chain of EZH2/SUZ12/EED complex (Homo sapiens) (Q15910 whole entry): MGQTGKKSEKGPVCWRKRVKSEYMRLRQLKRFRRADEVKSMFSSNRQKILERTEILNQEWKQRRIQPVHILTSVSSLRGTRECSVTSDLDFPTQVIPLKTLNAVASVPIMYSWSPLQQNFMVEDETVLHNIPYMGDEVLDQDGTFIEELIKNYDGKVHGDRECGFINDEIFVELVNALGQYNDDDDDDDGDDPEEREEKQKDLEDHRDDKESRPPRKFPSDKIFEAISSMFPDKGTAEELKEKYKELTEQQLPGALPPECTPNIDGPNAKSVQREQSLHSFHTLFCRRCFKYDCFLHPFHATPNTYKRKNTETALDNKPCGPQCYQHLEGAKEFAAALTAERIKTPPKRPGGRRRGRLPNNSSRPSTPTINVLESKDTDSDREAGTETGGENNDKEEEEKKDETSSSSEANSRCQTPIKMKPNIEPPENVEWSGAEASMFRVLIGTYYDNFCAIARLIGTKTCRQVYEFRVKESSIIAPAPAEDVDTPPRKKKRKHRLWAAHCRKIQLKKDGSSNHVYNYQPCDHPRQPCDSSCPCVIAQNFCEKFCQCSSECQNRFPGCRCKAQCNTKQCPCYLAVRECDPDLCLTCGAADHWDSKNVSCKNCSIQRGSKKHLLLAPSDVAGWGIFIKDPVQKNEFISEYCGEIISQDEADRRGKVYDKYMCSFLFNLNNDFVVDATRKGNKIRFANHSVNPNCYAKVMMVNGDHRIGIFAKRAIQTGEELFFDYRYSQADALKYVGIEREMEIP

[15] = target: EZH1/SUZ12/EED/AEBP2/RBBP4 complex (Homo sapiens) (UniProt Q92800+O75530+Q15022+Q6ZN18+Q09028); assay: Inhibition of EZH1/EED/SUZ12/AEBP2/RBBP4 complex (unknown origin)-mediated incorporation of methyl group from [3H]-SAM into peptide substrate up to 50 uM by scintillation proximity assay; type: protein-complex assay
Chain of EZH1/SUZ12/EED/AEBP2/RBBP4 complex (Homo sapiens) (O75530 2-441 partner limits assumed): as the sequence (O75530 2-441 partner limits assumed) above
Chain of EZH1/SUZ12/EED/AEBP2/RBBP4 complex (Homo sapiens) (Q09028 2-425 partner limits assumed): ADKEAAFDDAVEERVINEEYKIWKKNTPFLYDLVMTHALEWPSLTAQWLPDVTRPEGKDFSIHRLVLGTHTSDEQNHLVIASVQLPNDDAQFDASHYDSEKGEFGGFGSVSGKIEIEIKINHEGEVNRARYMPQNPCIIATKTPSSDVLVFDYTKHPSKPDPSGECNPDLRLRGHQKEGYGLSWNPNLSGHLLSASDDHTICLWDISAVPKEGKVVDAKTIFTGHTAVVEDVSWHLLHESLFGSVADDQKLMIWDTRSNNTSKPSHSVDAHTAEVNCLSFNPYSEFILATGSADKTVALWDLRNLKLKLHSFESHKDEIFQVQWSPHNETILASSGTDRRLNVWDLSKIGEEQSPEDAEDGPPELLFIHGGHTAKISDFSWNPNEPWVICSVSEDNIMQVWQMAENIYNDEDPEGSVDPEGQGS
Chain of EZH1/SUZ12/EED/AEBP2/RBBP4 complex (Homo sapiens) (Q15022 whole entry partner): as the sequence (Q15022 whole entry partner) above
Chain of EZH1/SUZ12/EED/AEBP2/RBBP4 complex (Homo sapiens) (Q6ZN18 2-517 partner limits assumed): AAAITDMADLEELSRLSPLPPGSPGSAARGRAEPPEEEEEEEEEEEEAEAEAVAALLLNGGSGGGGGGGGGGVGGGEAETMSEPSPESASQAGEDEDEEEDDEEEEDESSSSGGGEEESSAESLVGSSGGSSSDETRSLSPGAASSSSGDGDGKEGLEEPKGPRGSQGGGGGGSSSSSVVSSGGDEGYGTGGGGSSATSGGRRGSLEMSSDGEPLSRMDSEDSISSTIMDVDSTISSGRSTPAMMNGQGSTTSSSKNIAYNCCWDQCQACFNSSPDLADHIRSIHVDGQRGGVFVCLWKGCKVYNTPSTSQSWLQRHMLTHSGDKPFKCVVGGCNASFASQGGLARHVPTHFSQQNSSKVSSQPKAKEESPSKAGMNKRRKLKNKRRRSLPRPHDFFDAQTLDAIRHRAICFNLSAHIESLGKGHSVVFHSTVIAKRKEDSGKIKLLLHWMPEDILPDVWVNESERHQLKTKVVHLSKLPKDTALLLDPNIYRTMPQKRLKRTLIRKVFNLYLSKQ
Chain of EZH1/SUZ12/EED/AEBP2/RBBP4 complex (Homo sapiens) (Q92800 whole entry): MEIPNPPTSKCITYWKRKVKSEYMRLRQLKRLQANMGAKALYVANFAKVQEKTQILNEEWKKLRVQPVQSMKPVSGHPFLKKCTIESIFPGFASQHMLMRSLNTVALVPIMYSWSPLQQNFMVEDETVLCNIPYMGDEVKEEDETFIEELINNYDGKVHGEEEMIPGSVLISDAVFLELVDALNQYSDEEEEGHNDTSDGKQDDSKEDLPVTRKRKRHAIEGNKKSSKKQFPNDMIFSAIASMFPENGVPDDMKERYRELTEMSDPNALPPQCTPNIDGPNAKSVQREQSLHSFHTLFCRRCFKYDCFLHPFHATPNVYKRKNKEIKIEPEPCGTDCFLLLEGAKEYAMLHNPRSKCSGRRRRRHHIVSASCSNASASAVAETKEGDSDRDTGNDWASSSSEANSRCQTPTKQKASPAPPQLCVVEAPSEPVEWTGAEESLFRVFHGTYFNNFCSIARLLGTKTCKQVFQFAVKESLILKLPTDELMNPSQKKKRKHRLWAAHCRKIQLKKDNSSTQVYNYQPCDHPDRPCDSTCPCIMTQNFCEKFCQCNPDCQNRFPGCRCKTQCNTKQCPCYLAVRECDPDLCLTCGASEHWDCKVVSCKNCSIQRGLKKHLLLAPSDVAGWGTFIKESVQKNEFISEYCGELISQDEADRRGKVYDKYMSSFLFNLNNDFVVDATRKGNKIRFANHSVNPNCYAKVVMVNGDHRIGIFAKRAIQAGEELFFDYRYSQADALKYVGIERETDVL

[16] = target: N-lysine methyltransferase KMT5A (Homo sapiens) (UniProt Q9NQR1); assay: Inhibition of SETD8 (unknown origin)-mediated incorporation of methyl group from [3H]-SAM into peptide substrate up to 50 uM by scintillation proximity assay
[17] = target: Protein arginine N-methyltransferase 8 (Homo sapiens) (UniProt Q9NR22); assay: Inhibition of PRMT8 (unknown origin)-mediated incorporation of methyl group from [3H]-SAM into peptide substrate up to 50 uM by scintillation proximity assay
Chain of Protein arginine N-methyltransferase 8 (Homo sapiens) (Q9NR22 2-394 limits assumed): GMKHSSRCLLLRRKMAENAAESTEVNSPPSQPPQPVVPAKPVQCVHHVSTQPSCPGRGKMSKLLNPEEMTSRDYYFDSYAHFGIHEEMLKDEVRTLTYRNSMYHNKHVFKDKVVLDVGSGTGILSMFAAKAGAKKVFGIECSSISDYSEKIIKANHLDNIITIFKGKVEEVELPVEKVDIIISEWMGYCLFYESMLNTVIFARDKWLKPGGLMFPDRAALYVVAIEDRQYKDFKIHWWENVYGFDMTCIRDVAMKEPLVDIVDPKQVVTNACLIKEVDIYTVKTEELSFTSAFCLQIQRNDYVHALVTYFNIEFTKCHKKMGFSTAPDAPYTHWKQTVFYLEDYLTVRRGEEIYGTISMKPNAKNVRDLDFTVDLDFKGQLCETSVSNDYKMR

[18] = target: Protein arginine N-methyltransferase 6 (Homo sapiens) (UniProt Q96LA8); assay: Inhibition of PRMT6 (unknown origin)-mediated incorporation of methyl group from [3H]-SAM into peptide substrate up to 50 uM by scintillation proximity assay
Chain of Protein arginine N-methyltransferase 6 (Homo sapiens) (Q96LA8 whole entry, looked up): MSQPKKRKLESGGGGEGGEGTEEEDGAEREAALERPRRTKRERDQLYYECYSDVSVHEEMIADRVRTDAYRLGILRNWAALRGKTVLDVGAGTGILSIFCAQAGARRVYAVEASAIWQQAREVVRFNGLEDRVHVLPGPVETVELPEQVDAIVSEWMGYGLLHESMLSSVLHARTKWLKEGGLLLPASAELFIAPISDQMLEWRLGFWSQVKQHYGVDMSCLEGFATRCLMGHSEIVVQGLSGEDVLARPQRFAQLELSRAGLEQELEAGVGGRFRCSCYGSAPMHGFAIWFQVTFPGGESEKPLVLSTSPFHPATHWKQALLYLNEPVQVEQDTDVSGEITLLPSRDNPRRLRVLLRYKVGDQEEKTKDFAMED

[19] = target: PRMT5/MEP50 complex (Homo sapiens) (UniProt O14744+Q9BQA1); assay: Inhibition of PRMT5/MEP50 complex (unknown origin)-mediated incorporation of methyl group from [3H]-SAM into peptide substrate up to 50 uM by scintillation proximity assay; type: protein-complex assay
[20] = target: Protein arginine N-methyltransferase 3 (Homo sapiens) (UniProt O60678); assay: Inhibition of PRMT3 (unknown origin)-mediated incorporation of methyl group from [3H]-SAM into peptide substrate up to 50 uM by scintillation proximity assay
[21] = target: Protein arginine N-methyltransferase 1 (Homo sapiens) (UniProt Q99873); assay: Inhibition of PRMT1 (unknown origin)-mediated incorporation of methyl group from [3H]-SAM into peptide substrate up to 50 uM by scintillation proximity assay
Chain of Protein arginine N-methyltransferase 1 (Homo sapiens) (Q99873 whole entry, looked up): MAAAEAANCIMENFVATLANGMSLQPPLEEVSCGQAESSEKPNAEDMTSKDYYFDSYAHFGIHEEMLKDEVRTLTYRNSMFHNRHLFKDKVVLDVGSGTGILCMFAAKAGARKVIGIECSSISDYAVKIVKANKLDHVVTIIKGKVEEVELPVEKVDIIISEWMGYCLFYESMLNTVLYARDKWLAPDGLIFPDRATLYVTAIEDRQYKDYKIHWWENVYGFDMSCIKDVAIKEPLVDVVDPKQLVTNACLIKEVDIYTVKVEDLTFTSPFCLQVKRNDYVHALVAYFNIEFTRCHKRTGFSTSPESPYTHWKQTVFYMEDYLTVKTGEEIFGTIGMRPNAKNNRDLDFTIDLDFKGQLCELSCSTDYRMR

[22] = target: Histone-lysine N-methyltransferase SETD7 (Homo sapiens) (UniProt Q8WTS6); assay: Inhibition of SETD7 (unknown origin)-mediated incorporation of methyl group from [3H]-SAM into peptide substrate up to 50 uM by scintillation proximity assay
[23] = target: MLL1/ASH2L/RBBP5/WDR5 complex (Homo sapiens) (UniProt P61964+Q03164+Q9UBL3+Q15291); assay: Inhibition of MLL1/ASH2L/RBBP5/WDR5 complex (unknown origin)-mediated incorporation of methyl group from [3H]-SAM into peptide substrate up to 50 uM by scintillation proximity assay; type: protein-complex assay
[24] = target: Histone-lysine N-methyltransferase SETDB1 (Homo sapiens) (UniProt Q15047); assay: Inhibition of SETDB1 (unknown origin)-mediated incorporation of methyl group from [3H]-SAM into peptide substrate up to 50 uM by scintillation proximity assay
[25] = target: Histone-lysine N-methyltransferase SUV39H2 (Homo sapiens) (UniProt Q9H5I1); assay: Inhibition of SUV39H2 (unknown origin)-mediated incorporation of methyl group from [3H]-SAM into peptide substrate up to 50 uM by scintillation proximity assay
[26] = target: Histone-lysine N-methyltransferase EHMT2 (Homo sapiens) (UniProt Q96KQ7); settings: PC-3, 3 uM
Description: Inhibition of G9a in human PC3 cells assessed as reduction in H3K9Me2 level at 3 uM after 72 hrs by Western blotting analysis relative to control

[27] = target: T1, Histone-lysine N-methyltransferase EHMT2 (Homo sapiens, UniProt Q96KQ7); assay: Inhibition of G9a (unknown origin) using biotinylated-histone H3(1-21) peptide as substrate after 3 hrs by AlphaLISA assay
T1 sequence (Q96KQ7 whole entry): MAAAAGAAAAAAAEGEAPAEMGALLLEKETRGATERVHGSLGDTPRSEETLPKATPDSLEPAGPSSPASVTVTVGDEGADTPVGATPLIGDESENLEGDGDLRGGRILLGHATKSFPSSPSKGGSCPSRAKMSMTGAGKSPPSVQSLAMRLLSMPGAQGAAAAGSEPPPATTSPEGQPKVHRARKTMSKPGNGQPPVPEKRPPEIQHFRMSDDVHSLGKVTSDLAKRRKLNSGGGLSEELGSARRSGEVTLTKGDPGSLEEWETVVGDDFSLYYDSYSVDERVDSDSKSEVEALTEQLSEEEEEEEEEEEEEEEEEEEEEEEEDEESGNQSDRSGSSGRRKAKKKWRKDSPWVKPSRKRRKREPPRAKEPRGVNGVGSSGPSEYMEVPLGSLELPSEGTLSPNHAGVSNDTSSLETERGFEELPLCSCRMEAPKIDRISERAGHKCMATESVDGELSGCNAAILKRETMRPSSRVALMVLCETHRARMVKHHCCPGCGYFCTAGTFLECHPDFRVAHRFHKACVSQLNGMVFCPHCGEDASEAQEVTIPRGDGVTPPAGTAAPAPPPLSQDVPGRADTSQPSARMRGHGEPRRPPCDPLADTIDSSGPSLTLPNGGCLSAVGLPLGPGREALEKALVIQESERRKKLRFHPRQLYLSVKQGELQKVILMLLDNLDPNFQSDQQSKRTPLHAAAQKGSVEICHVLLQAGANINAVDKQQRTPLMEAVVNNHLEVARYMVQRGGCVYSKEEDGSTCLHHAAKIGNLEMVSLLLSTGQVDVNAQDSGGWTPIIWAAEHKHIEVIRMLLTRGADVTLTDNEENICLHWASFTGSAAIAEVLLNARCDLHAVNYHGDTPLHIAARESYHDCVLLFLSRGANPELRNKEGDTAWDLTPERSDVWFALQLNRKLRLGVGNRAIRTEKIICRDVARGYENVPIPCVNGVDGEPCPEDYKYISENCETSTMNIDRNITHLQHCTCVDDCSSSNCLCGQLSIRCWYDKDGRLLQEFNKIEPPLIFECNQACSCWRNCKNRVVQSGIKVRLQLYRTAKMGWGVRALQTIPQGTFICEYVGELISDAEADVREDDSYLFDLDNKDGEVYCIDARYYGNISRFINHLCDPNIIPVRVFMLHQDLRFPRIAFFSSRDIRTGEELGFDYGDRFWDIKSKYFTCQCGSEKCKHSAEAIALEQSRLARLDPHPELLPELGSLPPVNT

For `COc1cc2c(cc1OCCCN1CCCC1)N=C(N)C21CCC1`, the Activity (PC-3 [1]) was “inactive”, the Activity (PC-3 [2]) was “inactive” and the Activity (PC-3 [3]) was “inactive”. The IC50 [4] was 38 nM, the inhibition [5] was “inactive” and the inhibition [6] was “inactive”. The inhibition [7] was “inactive”, the inhibition [8] was “inactive” and the inhibition [9] was “inactive”. The inhibition [10] was “inactive”, the inhibition [11] was “inactive” and the inhibition [12] was “inactive”. The inhibition [13] was “inactive”, the inhibition [14] was “inactive” and the inhibition [15] was “inactive”. For the same molecule, the inhibition [16] was “inactive”, the inhibition [17] was “inactive” and the inhibition [18] was “inactive”. The inhibition [19] was “inactive”, the inhibition [20] was “inactive” and the inhibition [21] was “inactive”. For the same molecule, the inhibition [22] was “inactive”, the inhibition [23] was “inactive” and the inhibition [24] was “inactive”. The inhibition [25] was “inactive” and the inhibition [26] was 50%.
`COc1cc2c(NC3CCN(C(C)C)CC3)nc(C3CCCCC3)nc2cc1OCCCN1CCCC1` was tested, and the Activity (PC-3 [1]) was “inactive”, the Activity (PC-3 [2]) was “inactive” and the Activity (PC-3 [3]) was “inactive”. The inhibition [26] was 50%.
For `COc1cc2c(cc1OCCCN1CC[C@@H](F)C1)N=C(N)C21CCC1`, the IC50 [27] was 3.7 nM.
Molecule `COc1cc2c(cc1OCCCN1CC[C@H](F)C1)N=C(N)C21CCC1` has an IC50 [27] of 18 nM.
For `COc1cc2cc(N)[nH]c2cc1OC`, the IC50 [27] was 14400 nM.
